Test results reported in patent US8637493B2, “Methods for treating glioblastoma” (University of Massachusetts, priority 2009, dated 2014).

Columns and labels:
GS8-26 = assay: Neurosphere formation / recovery / secondary neurosphere assay, GS8-26; assay type: cell-based, human
Protocol: The effect of chemotherapy on neurosphere formation was assayed in glioma neurosphere cultures. Cultures are treated with a single dose of the agent, e.g., TMZ and multiple doses of a GSI, e.g., DAPT to inhibit the Notch pathway. After the Treatment phase, the number of initial spheres (counted about 7 days after TMZ treatment) represents the number of proliferating CSC/progenitors (FIG. 1 for schematic). Recovery (counted 14 days after TMZ treatment) includes enlargement of the initial spheres and new spheres formed when CSC/progenitor cells quiescent as a result of chemotherapy resume cell proliferation. […] The cells used included U87NS, a neurosphere culture converted to neurosphere growth in defined medium from U87MG (an old Swedish line that is grown in conventional serum conditions); GS7-2, GS8-26 and GS6-22 primary neurosphere cultures that were obtained from grade IV GBM patient tumor samples and AS5-15, which was obtained from a grade III anaplastic astrocytoma.
(§1) To determine the effects of TMZ plus DAPT neurospheres, cells were plated as previously described (Mihaliak et al., Cancer Letts. 296, 168-177 (2010)). Immediately after plating, cells were treated with DMSO, DAPT-only, LY411,575 (LY)-only TMZ-only, TMZ+DAPT or TMZ+LY. The initial neurospheres were counted on day 7 for the converted cell lines and on day 10 for the slower growing primary lines. Neurosphere recovery was measured on day 14 or 20. The neurospheres were dissociated, re-plated and secondary neurosphere formation was measured on day 21 or 30.
Neurosphere cultures were dissociated to single cell suspensions by pH dissociation followed by filtration through 40 μm screens. […] Neurospheres consisting of 10 or more cells were counted under a light microscope on day 7 for the converted cell lines. Primary lines have a slightly longer doubling time and were counted on day 10. […] Neurospheres from the recovery period were counted on day 14 or day 20. […] The number of secondary neurospheres formed by converted cell lines and primary cultures were counted on day 21 or day 30, respectively. […]

[1] = system: U87NS, U373NS, GS7-2 and GS8-26; assay: Neurosphere recovery assay, initial neurospheres, range over all cultures; assay type: cell-based, human; settings: day 7 or 10
Protocol: as §1
Neurosphere cultures were dissociated to single cell suspensions by pH dissociation followed by filtration through 40 μm screens. For the neurosphere assay, 3,000 cells/ml of defined medium were seeded in 6-well plates. Immediately after plating, cells were treated with DMSO (Research Organics, Cleveland, Ohio) carrier control, TMZ-only, DAPT-only, or TMZ+DAPT. Additional DAPT was added on days 2 and 4. Neurospheres consisting of 10 or more cells were counted under a light microscope on day 7 for the converted cell lines. Primary lines have a slightly longer doubling time and were counted on day 10. […] Neurospheres from the recovery period were counted on day 14 or day 20. […] The number of secondary neurospheres formed by converted cell lines and primary cultures were counted on day 21 or day 30, respectively. […]

GS7-2-pMIG = assay: Neurosphere recovery assay, empty vector GS7-2-pMIG; assay type: cell-based, human; settings: empty vector control
Protocol: Neurosphere cultures were dissociated to single cell suspensions by pH dissociation followed by filtration through 40 μm screens. For the neurosphere assay, 3,000 cells/ml of defined medium were seeded in 6-well plates. Immediately after plating, cells were treated with DMSO (Research Organics, Cleveland, Ohio) carrier control, TMZ-only, DAPT-only, or TMZ+DAPT. Additional DAPT was added on days 2 and 4. Neurospheres consisting of 10 or more cells were counted under a light microscope on day 7 for the converted cell lines. Primary lines have a slightly longer doubling time and were counted on day 10. After counting the neurospheres from the initial treatment, 2 ml of fresh defined medium was added to each well. DAPT was also added once more to the DAPT-only and TMZ+DAPT samples, and the cells were incubated for an additional 7 or 10 days. Neurospheres from the recovery period were counted on day 14 or day 20. To analyze secondary neurosphere formation, cells were collected, pelleted and dissociated to a single cell suspension by the pH method. Cells from each well were re-seeded into 6-well plates with 2 ml of defined medium. The number of secondary neurospheres formed by converted cell lines and primary cultures were counted on day 21 or day 30, respectively. All recovery assays were repeated with a minimum of 6 replicate sets of time points. […]

[2] = Toxicity by body weight during drug administration
Protocol: Tolerance of the drug treatments was determined by measuring the weight of the mice during the period of drug administration.
During drug administration, toxicity was determined by weight loss.

Hey1 = assay: RT-PCR / qRT-PCR of Notch target Hey1 mRNA in neurosphere cultures after DAPT; assay type: cell-based, human; settings: for decrease of Hey1 mRNA level: 48 hours after treatment, RT-PCR; for Hey1 expression (qRT-PCR): 1 μM DAPT, 48 hours
Protocol: TMZ concentrations for each culture were selected based on previous experiments (Mihaliak et al., Cancer Letts. 296, 168-177 (2010)) DAPT and LY concentrations were chosen for each culture based on the decrease in Hes1 and Hey1 expression. RNA was isolated from the cultures 48 hours after DAPT treatment, and Hes1 and Hey1 cDNA expression levels were analyzed by PCR or qPCR.
RT-PCR and RT-qPCR were performed as follows. Neurosphere cultures were pelleted and tumor tissues from subcutaneous xenografts were broken into a powder using a BioPulverizer (Biospec Products, Inc., Bartlesville, Okla.). RNA was isolated from neurosphere cultures and frozen tumor samples using TRIzol Reagent (Invitrogen, Carlsbad, Calif.), following the manufacturer's protocol. RNA was treated with DNase I, Amplification Grade (Invitrogen, Carlsbad, Calif.). cDNA was made using the SuperScript II Reverse Transcription (RT) Kit with Oligo(dT)12-18 primers (Invitrogen, Carlsbad, Calif.), followed by a 20 minute incubation at 37° C. with RNaseH. PCR was carried out using Taq DNA Polymerase, following the manufacturer's protocol (Invitrogen, Carlsbad, Calif.). Real time qPCR was carried out using QuantiTect SYBR Green (QIAGEN, Valencia, Calif.). Hes1 and β-Actin primers were developed using Primer3 (Rozen and Skaletsky, Methods Mol Biol 2000; 132: 365-86). Hes1 forward primer: 5″ […] 3″ (SEQ ID NO:1) and reverse primer: 5″ […] 3″ (SEQ ID NO:2). β-Actin (RT-PCR) forward primer: 5″[…] 3″ (SEQ ID NO:3) and reverse primer: 5″ […] 3″ (SEQ ID NO:4). β-Actin (qRT-PCR) forward primer: 5″[…] 3″ (SEQ ID NO:5) and reverse primer: 5″ […] (SEQ ID NO:6). Primers for Hey1 (Osipo et al., Oncogene 2008; 27: 5019-32), Notch1 (Lefort et al., Genes Dev 2007; 21: 562-77), Notch2 (O'Neill et al., Am J Pathol 2007; 171: 1023-36), Notch3 (Buchler et al., Ann Surg 2005; 242: 791-800, discussion −1) and Notch4 (Buchler et al., Ann Surg 2005; 242: 791-800, discussion −1) were previously published, RT-PCR products were analyzed on 2% agarose gels. tantification of band intensity for DAPT treated lines was determined using ImageJ (Rasband W S. ImageJ, U.S. National Institutes of Health, Bethesda, Md., USA. 1997-2004). cDNA levels for qRT-PCR products were calculated using the PFAFFL method (Pfaffl, Nucleic Acids Res 2001; 29: e45).

Structure (SMILES)	recovery: increase in the number of neurospheres (GS8-26; day 20 relative to day 10, DAPT 5 μM) [fold]	secondary neurosphere formation, TMZ-only treated culture relative to TMZ+DAPT treated culture (GS8-26; day 30, P<0.001) [fold]	average number of cells per neurosphere capable of self-renewal (GS8-26; secondary neurospheres divided by recovery neurospheres) [cells per neurosphere]	decrease of initial neurosphere formation [1]	recovery: increase in neurospheres (GS7-2-pMIG) [fold]	body weight, initially after TMZ injections [2]	body weight, remainder of treatment / final weight [2]	decrease of Hey1 mRNA level (Hey1; U87NS, DAPT 1 μM) [%]	Hey1 expression (qRT-PCR) (Hey1; U87NS-NICD)	Hey1 expression (qRT-PCR) (Hey1; U87NS-pMIG)	decrease of Hey1 mRNA level (Hey1; U373NS, DAPT 5 μM) [%]
Cn1nnc2c(C(N)=O)ncn2c1=O [TMZ, temozolomide]	1.6	25	31	80-98%	2.1	slight weight loss	no significant weight difference	–	–	–	–
C[C@H](NC(=O)Cc1cc(F)cc(F)c1)C(=O)N[C@H](C(=O)OC(C)(C)C)c1ccccc1 [DAPT, N-[N-(3,5-difluorophenacetyl)-L-alanyl]-(S)-phenylglycine t-butyl ester]	–	–	–	–	–	–	–	76	minimal decrease	decreased	51
